In paper PMC10350552, “Investigation of the GnRH antagonist degarelix isomerization in biological matrices” (Pharmacology Research & Perspectives, 2023):
Where a SMILES comes first, the peptide text is derived from it. [ ]: non-standard residue; d: D form. The star is where a group is joined. dPhe(4-NHCONH2) = NC(=O)Nc1ccc(C[C@@H](N)C(=O)O)cc1; Dihydroorotyl(S) = O=C1C[C@@H](C(=O)*)NC(=O)N1; dPhe(4-Cl) = N[C@H](Cc1ccc(Cl)cc1)C(=O)O; Phe(4-NH2) = Nc1ccc(C[C@H](N)C(=O)O)cc1; d2Nal = N[C@H](Cc1ccc2ccccc2c1)C(=O)O; Lys(iPr) = CC(C)NCCCC[C@H](N)C(=O)O; X1 = O=C1NC(=O)[C@H](CC(=O)*)N1; d3Pal = N[C@H](Cc1cccnc1)C(=O)O

Legend:
in vitro = conditions: male, human, plasma, pH 7.8
Method: Degarelix or 5‐Hyd‐degarelix test solutions (10 μL of 180 μg/mL degarelix or 5‐Aph(Hyd)‐degarelix in 20% acetonitrile) were each mixed with 890 μL of human plasma, Dulbecco buffer (5 mM NaH2PO4, 20 mM Na2HPO4, 5 mM KCl, 120 mM NaCl, adjusted to pH 7.4 with NaOH), 4.5% human serum albumin solution (HSA solution), and human serum albumin solution with 0.21 mg/mL warfarin: 3960 μL HSA solution +40 μL warfarin stock solution (21 mg warfarin in 1 mL water)to a final concentration of 2000 ng/mL of each analyte and 0.2% of acetonitrile. […] The samples were then diluted with 10 μL of the solution of 0.1% of formic acid in 20% acetonitrile and 70 μL of acetonitrile. The solutions were shaken and centrifuged. To 50 μL of the supernatant, 20 μL of water and 0.2% of formic acid were added and the solution was used for HPLC analysis. All the experiments were repeated three times.
The ANALYST software was used to integrate all peaks automatically by use of the IntelliQuan algorithm and to calculate the calibration curves of degarelix and 5‐Aph(Hyd)‐degarelix by linear regression with a weighting of 1/x ^2. The parameters for peak integrations were adapted for all samples in each analytical batch. The ANALYST software was used to calculate the concentrations of the test and QC samples based on the corresponding calibration curves.

[1] = Stability in HSA solution with warfarin; type: in vitro ADME, human; conditions: 37°C, 2000 ng/mL, up to 48 h
From the text: (§1) The solutions were shaken and centrifuged. […] All the experiments were repeated three times.

[2] = Stability in 4.5% human serum albumin (HSA) solution without warfarin; type: in vitro ADME; conditions: 37°C, 2000 ng/mL, up to 48 h
From the text: as §1

[3] = test system: human serum albumin (HSA); conditions: cited from earlier work
From the text: After its approval by FDA in 2008, degarelix became the most widely used GnRH antagonist in patients with advanced prostate cancer.[17] The advantages of degarelix are its high affinity to the GnRH receptor, increased hydrophilicity, and decreased propensity to form gels. As a result, degarelix has better bioavailability than the previous GnRH antagonists. These improved characteristics are related to the presence of additional 4‐[(aminocarbonyl)amino]‐phenylalanine [Aph(Cbm)] and 4‐[(dihydroorotyl)amino]‐phenylalanine [Aph(Hor)] moieties, which afford multiple hydrogen‐bonding sites and permi ...

[4] = in vivo; cited from earlier work
[5] = test system: human cytochrome P450 system; conditions: cited from earlier work

remaining at 8 h, 2000 ng/mL (in vitro)	remaining at 24 h, 2000 ng/mL (in vitro)	remaining at 32 h, 2000 ng/mL (in vitro)	remaining at 48 h, 2000 ng/mL (in vitro)	Change in the 5-Aph(Hyd)-degarelix content ([1]; 5-Aph(Hyd)-degarelix in HSA solution with warfarin)	Formation of 5-Aph(Hyd)-degarelix from degarelix ([1]; degarelix in 4.5% HSA solution with 0.21 mg/mL warfarin (equimolar to albumin), HPLC-MS/MS)	Change in the 5-Aph(Hyd)-degarelix content ([2]; 5-Aph(Hyd)-degarelix in 4.5% HSA solution without warfarin)	Formation of 5-Aph(Hyd)-degarelix from degarelix ([2]; degarelix in 4.5% HSA solution without warfarin, HPLC-MS/MS)	Structure (SMILES)	Binding to human serum albumin (HSA) [3]	Time to reach the maximum concentration in the blood [4]	Substrate for the human cytochrome P450 system [5]
103%	93%	91%	80%	we did not see any change	No 5‐Aph(Hyd)‐degarelix was observed	we did not see any change	No 5‐Aph(Hyd)‐degarelix was observed	CC(=O)N[C@H](Cc1ccc2ccccc2c1)C(=O)N[C@H](Cc1ccc(Cl)cc1)C(=O)N[C@H](Cc1cccnc1)C(=O)N[C@@H](CO)C(=O)N[C@@H](Cc1ccc(NC(=O)C[C@@H]2NC(=O)NC2=O)cc1)C(=O)N[C@H](Cc1ccc(NC(N)=O)cc1)C(=O)N[C@@H](CC(C)C)C(=O)N[C@@H](CCCCNC(C)C)C(=O)N1CCC[C@H]1C(=O)N[C@H](C)C(N)=O [5‐Aph(Hyd)‐degarelix] (Ac-[d2Nal][dPhe(4-Cl)][d3Pal]S[Phe(4-NH2)](X1)[dPhe(4-NHCONH2)]L[Lys(iPr)]P[dA]-NH2)			
104%	92%	91%	74%					CC(=O)N[C@H](Cc1ccc2ccccc2c1)C(=O)N[C@H](Cc1ccc(Cl)cc1)C(=O)N[C@H](Cc1cccnc1)C(=O)N[C@@H](CO)C(=O)N[C@@H](Cc1ccc(NC(=O)[C@@H]2CC(=O)NC(=O)N2)cc1)C(=O)N[C@H](Cc1ccc(NC(N)=O)cc1)C(=O)N[C@@H](CC(C)C)C(=O)N[C@@H](CCCCNC(C)C)C(=O)N1CCC[C@H]1C(=O)N[C@H](C)C(N)=O [degarelix] (Ac-[d2Nal][dPhe(4-Cl)][d3Pal]S[Phe(4-NH2)](Dihydroorotyl(S))[dPhe(4-NHCONH2)]L[Lys(iPr)]P[dA]-NH2)	76.3%	37 to 42 h	not a substrate
